Laboratory results published in ChEMBL document CHEMBL4411308, “Design, synthesis and biological evaluation of novel benzo- and tetrahydrobenzo-[h]quinoline derivatives as potential DNA-intercalating antitumor agents” (Eur J Med Chem, 2019).

What was measured:
[1] = system: MCF7; test: Cytotoxicity against human MCF7 cells assessed as inhibition of cell proliferation after 48 hrs by MTT assay; format: functional, cell-based; conditions: MCF7, 48 h
[2] = system: A2780; test: Cytotoxicity against human A2780 cells assessed as inhibition of cell proliferation after 48 hrs by MTT assay; format: functional, cell-based; conditions: A2780, 48 h
[3] = system: A549; test: Cytotoxicity against human A549 cells assessed as inhibition of cell proliferation after 48 hrs by MTT assay; format: functional, cell-based; conditions: A549, 48 h
[4] = Cytotoxicity against mouse C26 cells assessed as inhibition of cell proliferation after 48 hrs by MTT assay; format: functional, cell-based; conditions: C26, 48 h
[5] = system: A549; test: Induction of apoptosis in human A549 cells assessed as live cells at 1 uM after 24 hrs by Annexin V-FITC/propidium iodide staining based flow cytometry (reference value: 98.4%); format: functional
[6] = system: A549; test: Induction of apoptosis in human A549 cells assessed as early apoptotic cells at 1 uM after 24 hrs by Annexin V-FITC/propidium iodide staining based flow cytometry (reference value: 0.886%); format: functional
[7] = system: A549; test: Induction of apoptosis in human A549 cells assessed as late apoptotic cells at 1 uM after 24 hrs by Annexin V-FITC/propidium iodide staining based flow cytometry (reference value: 0.462%); format: functional
[8] = system: A549; test: Induction of apoptosis in human A549 cells assessed as necrotic cells at 1 uM after 24 hrs by Annexin V-FITC/propidium iodide staining based flow cytometry (reference value: 0.231%); format: functional
[9] = system: Calf thymus DNA; test: Binding affinity to calf thymus DNA by UV-vis absorption spectrophotometric method; format: nucleic-acid assay; conditions: Bos taurus
[10] = system: Calf thymus DNA; test: Binding affinity to calf thymus DNA by fluorescence spectroscopic method; format: nucleic-acid assay; conditions: Bos taurus
[11] = system: A549; test: Induction of apoptosis in human A549 cells assessed as live cells at 5 uM after 24 hrs by Annexin V-FITC/propidium iodide staining based flow cytometry (reference value: 98.4%); format: functional
[12] = system: A549; test: Induction of apoptosis in human A549 cells assessed as early apoptotic cells at 5 uM after 24 hrs by Annexin V-FITC/propidium iodide staining based flow cytometry (reference value: 0.886%); format: functional
[13] = system: A549; test: Induction of apoptosis in human A549 cells assessed as late apoptotic cells at 5 uM after 24 hrs by Annexin V-FITC/propidium iodide staining based flow cytometry (reference value: 0.462%); format: functional
[14] = system: A549; test: Induction of apoptosis in human A549 cells assessed as necrotic cells at 5 uM after 24 hrs by Annexin V-FITC/propidium iodide staining based flow cytometry (reference value: 0.231%); format: functional
[15] = system: A549; test: Induction of apoptosis in human A549 cells assessed as live cells at 10 uM after 24 hrs by Annexin V-FITC/propidium iodide staining based flow cytometry (reference value: 98.4%); format: functional
[16] = system: A549; test: Induction of apoptosis in human A549 cells assessed as early apoptotic cells at 10 uM after 24 hrs by Annexin V-FITC/propidium iodide staining based flow cytometry (reference value: 0.886%); format: functional
[17] = system: A549; test: Induction of apoptosis in human A549 cells assessed as late apoptotic cells at 10 uM after 24 hrs by Annexin V-FITC/propidium iodide staining based flow cytometry (reference value: 0.462%); format: functional
[18] = system: A549; test: Induction of apoptosis in human A549 cells assessed as necrotic cells at 10 uM after 24 hrs by Annexin V-FITC/propidium iodide staining based flow cytometry (reference value: 0.231%); format: functional
[19] = system: A549; test: Induction of apoptosis in human A549 cells after 24 hrs by Annexin V-FITC/propidium iodide staining based flow cytometry; format: functional, cell-based

For `CN(C)CCNC(=O)c1cc(-c2ccc(F)cc2)nc2c3c(ccc12)CCCC3`, which IC50 [1] is on record?
Its IC50 is 12.9 µM.

And the IC50 [2]?
The IC50 was 6.16 µM.

What about the IC50 [3] of the same molecule?
The IC50 was 13.6 µM.

And the IC50 [4]?
Its IC50 is 18.4 µM.

What does the source list for `COc1cc(-c2cc(C(=O)NCCN(C)C)c3ccc4c(c3n2)CCCC4)cc(OC)c1OC`?
IC50 [1]: 5.62 µM; IC50 [2]: 11 µM; IC50 [3]: 14.5 µM; IC50 [4]: 11.6 µM

For `COc1cccc2c1C(=O)c1c(O)c3c(c(O)c1C2=O)C[C@@](O)(C(=O)CO)C[C@@H]3O[C@H]1C[C@H](N)[C@H](O)[C@H](C)O1` [DOXORUBICIN], which IC50 [1] is on record?
The IC50 was 0.5 µM.

And the IC50 [2]?
The IC50 was 0.123 µM.

What about the IC50 [3] of the same molecule?
The IC50 was 0.766 µM.

And the Activity [5]?
The Activity was 31%.

What about the Activity [6] of the same molecule?
Its Activity is 2.19%.

And the Activity [7]?
Its Activity is 11.1%.

What about the Activity [8] of the same molecule?
Its Activity is 55.8%.

With `CN(C)CCNC(=O)c1cc(-c2ccccn2)nc2c1ccc1ccccc12` as the molecule, how does the IC50 [1] read?
Its IC50 is > 100 µM.

And the IC50 [2]?
The IC50 was 61.2 µM.

And the IC50 [3]?
Its IC50 is 56.2 µM.

And the IC50 [4]?
Its IC50 is 39.3 µM.

Which results are given for `CN(C)CCNC(=O)c1cc(-c2ccccn2)nc2c3c(ccc12)CCCC3`?
IC50 [1]: 16.6 µM; IC50 [2]: 14.8 µM; IC50 [3]: 60.1 µM; IC50 [4]: 50 µM

For `CN(C)CCNC(=O)c1cc(-c2ccccc2)nc2c1ccc1ccccc12`, which IC50 [1] is on record?
Its IC50 is 33.3 µM.

And the IC50 [2]?
Its IC50 is 72.6 µM.

And the IC50 [3]?
Its IC50 is 65.7 µM.

And the IC50 [4]?
The IC50 was 35.6 µM.

Which IC50 [1] does the source give for `CC(=O)Nc1ccc(-c2cc(C(=O)NCCN(C)C)c3ccc4ccccc4c3n2)cc1` here?
Its IC50 is 4.05 µM.

And the IC50 [2]?
The IC50 was 9.34 µM.

What about the IC50 [3] of the same molecule?
The IC50 was 7.98 µM.

What about the IC50 [4] of the same molecule?
Its IC50 is 7.71 µM.

For `COc1ccc(-c2cc(C(=O)NCCN(C)C)c3ccc4c(c3n2)CCCC4)cc1`, which IC50 [1] is on record?
The IC50 was 6.3 µM.

And the IC50 [2]?
Its IC50 is 1.65 µM.

What about the IC50 [3] of the same molecule?
The IC50 was 4.96 µM.

And the IC50 [4]?
The IC50 was 7.19 µM.

What does the source list for `Cc1ccc(-c2cc(C(=O)NCCN(C)C)c3ccc4c(c3n2)CCCC4)cc1`?
IC50 [1]: 2.29 µM; IC50 [2]: 2.13 µM; IC50 [3]: 3.89 µM; IC50 [4]: 2.33 µM; Kb [9]: 1.75 ×10⁴ No_unit; Kb [10]: 6.4 ×10⁴ No_unit; Activity [11]: 97.8%; Activity [12]: 1.13%; Activity [13]: 0.093%; Activity [14]: 1.02%; Activity [15]: 54.9%; Activity [16]: 44.4%; Activity [17]: 0.72%; Activity [18]: 0.01%; Activity [19]: Dose-dependent effect

With `Cc1ccc(-c2cc(C(=O)NCCN(C)C)c3ccc4ccccc4c3n2)cc1` as the molecule, how does the IC50 [1] read?
Its IC50 is 1.51 µM.

And the IC50 [2]?
The IC50 was 9.08 µM.

What about the IC50 [3] of the same molecule?
The IC50 was 5.89 µM.

And the IC50 [4]?
The IC50 was 3.62 µM.

What about the Kb [9] of the same molecule?
Its Kb is 2.2 ×10⁴ No_unit.

What about the Kb [10] of the same molecule?
The Kb was 8.1 ×10⁴ No_unit.

And the Activity [11]?
The Activity was 94.1%.

And the Activity [12]?
Its Activity is 5.48%.

What about the Activity [13] of the same molecule?
The Activity was 0.18%.

What about the Activity [14] of the same molecule?
Its Activity is 0.2%.

What about the Activity [15] of the same molecule?
The Activity was 75.1%.

And the Activity [16]?
Its Activity is 24.6%.

What about the Activity [17] of the same molecule?
The Activity was 0.08%.

And the Activity [18]?
Its Activity is 0.22%.

And the Activity [19]?
The Activity was “Dose-dependent effect”.

For `CC(=O)Nc1ccc(-c2cc(C(=O)NCCN(C)C)c3ccc4c(c3n2)CCCC4)cc1`, which IC50 [1] is on record?
Its IC50 is 2.69 µM.

What about the IC50 [2] of the same molecule?
The IC50 was 1.86 µM.

What about the IC50 [3] of the same molecule?
The IC50 was 1.9 µM.

What about the IC50 [4] of the same molecule?
The IC50 was 3.91 µM.

And the Kb [9]?
The Kb was 2 ×10⁴ No_unit.

And the Activity [11]?
The Activity was 63.7%.

And the Activity [12]?
The Activity was 27.5%.

And the Activity [13]?
Its Activity is 7.58%.

And the Activity [14]?
The Activity was 1.22%.

What about the Activity [15] of the same molecule?
The Activity was 53%.

And the Activity [16]?
The Activity was 46.4%.

What about the Activity [17] of the same molecule?
The Activity was 0.34%.

And the Activity [18]?
Its Activity is 0.34%.

What about the Activity [19] of the same molecule?
Its Activity is “Dose-dependent effect”.

With `COc1ccc(-c2cc(C(=O)NCCN(C)C)c3ccc4c(c3n2)CCCC4)cc1OC` as the molecule, how does the IC50 [1] read?
Its IC50 is 13.8 µM.

What about the IC50 [2] of the same molecule?
The IC50 was 11.5 µM.

And the IC50 [3]?
Its IC50 is 15.4 µM.

And the IC50 [4]?
Its IC50 is 12.7 µM.

What does the source list for `CN(C)CCNC(=O)c1cc(-c2ccc(F)cc2)nc2c1ccc1ccccc12`?
IC50 [1]: 16.6 µM; IC50 [2]: 14.3 µM; IC50 [3]: 18.4 µM; IC50 [4]: 5.29 µM

What does the source list for `COc1ccc(-c2cc(C(=O)NCCN(C)C)c3ccc4ccccc4c3n2)cc1`?
IC50 [1]: 37.4 µM; IC50 [2]: 14.2 µM; IC50 [3]: 20.2 µM; IC50 [4]: 2.41 µM; Kb [9]: 2 ×10⁴ No_unit; Kb [10]: 7.4 ×10⁴ No_unit
